Assay results: patent US20240424004A1, “COMBINATION OF TLR LIGANDS, COMPOUNDS LABELLING TUMORS FOR IMMUNE ATTACK, ANTI-CD40 ANTIBODIES AND INHIBITORS OF GLUTAMINE METABOLISM FOR TREATING CANCER” (priority 2021, published 2024)

How the values were obtained:
Panc02 cells [1] = experiment: Example 4: bilateral Panc02 model, i.t. MBTA + i.p. DON in two timing regimes; assay type: in vivo; settings: for prolongation of mice survival: FIG. 4C
Procedure: (§1) Subcutaneous transplantation: Mice were subcutaneously injected with 4×10^5 Panc02 cells in 0.1 ml DMEM or 4×10^5 B16-F10 cells in 0.1 ml RPMI 1640 medium without additives into pre-shaved groin (right or both right and left).
(§2) MBTA immunotherapy: 50 μl of the therapeutic mixture consisting of 0.5 mg R-848, HCl form+0.5 mg poly (I:C), 0.5 mg LTA and 0.4 mg anti-CD40/ml of 0.2 mM mannan-BAM in PBS was administered intratumorally on days 0, 1, 2, 8, 9, 10, 16, 17, 18, 24, 25, and 26. The combination of R-848, poly (I:C), LTA, mannan-BAM and anti-CD40 antibody is hereinafter referred to as ‘MBTA’. In the case of the bilateral Panc02 tumor model, MBTA therapy was always injected only into the right subcutaneous tumor.
(§3) Evaluation of treatment: Tumor sizes were measured every other day using a digital calliper. The formula V=(π/6)AB^2, A being the largest tumor size, B being the smallest tumor size, was used to calculate tumor volume.
(§4) The areas under the curves (AUC) were calculated to evaluate tumor growth. The obtained values were statistically evaluated by one-way ANOVA with unequal post hoc test. Kaplan-Meier survival curves were evaluated using the long-rank test. STATISTICA 12 software (StatSoft, Inc., Tulsa, OK, USA) was used for all statistical evaluations. Error bars represent standard error of the mean (SEM).
To improve MBTA/DON combined therapy outcomes we tested the intraperitoneal administration of DON in combination with i.t. MBTA therapy. The total amount of DON (2 mg/mouse/therapy) was applied in two different regimes as further specified.
C57BL/6 mice were s.c. inoculated with Panc02 cells in both right and left flank. After 12 days, mice were randomized into four groups (n=6/group): Group treated with PBS applied in the right tumor; group treated with MBTA applied in the right tumor; group treated with MBTA applied in the right tumor, and DON applied i.p. (13 doses); group treated with MBTA applied in the right tumor, and DON applied i.p. (5 doses, red). MBTA (PBS in the control group) was applied in pulse regime on days 0, 1, 2, 8, 9, 10, 16, 17, 18, 24, 25, and 26. DON was administered i.p. on days 5, 13, 21, 29, 37 (400 μg) and 1, 3, 5, 7, 9, 11, 13 15 17 19 21, 23, 25 (154 μg), respectively.
FIG. 4A, B: Growth of right/left tumors. Statistical analysis was performed by calculating AUC (area under the curve) values using a one-way ANOVA test with Tukey's post hoc test (* p<0.05, **** p<0.001, ***** p<0.0005), FIG. 4 C: Survival analysis.

Panc02 cells [2] = experiment: Example 5: bilateral Panc02 model, i.t. MBTA + s.c. DON in different dosages; assay type: in vivo, C57BL/6 mice; settings: with i.t. MBTA, DON s.c. 80 μg or 400 μg, days 1,9,17,25,33
Procedure: as §1, §2, §3
as §4, with “(SEM). […]” for “(SEM).”

Panc02 cells [3] = experiment: Example 6: bilateral Panc02 model, i.t. MBTA + DON i.t. (left tumor) versus i.p.; assay type: in vivo, C57BL/6 mice; settings: with MBTA in right tumor, days 1,8,15,22,29
Procedure: as §1, §2, §3
as §4, with “(SEM). […]” for “(SEM).”

Panc02 cells [4] = experiment: Example 7: bilateral Panc02 model, i.t. MBTA + i.p. DON, efficacy and side effects; assay type: in vivo; settings: DON 400 μg i.p., days 1,8,15,22,29, with i.t. MBTA
Procedure: as §1, §2, §3
as §4, with “(SEM). […]” for “(SEM).”

Compound: [N-]=[N+]=CC(=O)CC[C@H](N)C(=O)O [DON, 6-diazo-5-oxo-norleucine]
- early deaths of treated mice (Panc02 cells [1]; DON i.p. with a sufficient interval between each application, with i.t. MBTA (summary of Examples 4 to 6)): did not observe any early deaths
- prolongation of mice survival (Panc02 cells [1]; with i.t. MBTA, DON i.p. 154 μg, 13 doses, every other day): evident but not statistically significant
- prolongation of mice survival (Panc02 cells [1]; with i.t. MBTA, DON i.p. 400 μg, 5 doses): evident but not statistically significant
- tolerability of regime / early death (Panc02 cells [1]; with i.t. MBTA, DON i.p. every other day (154 μg, 13 doses), n=6/group): too aggressive and resulted in early death of three mice
- reduction of tumor growth, compared to i.p. administration of DON (Example 4) (Panc02 cells [2]; FIG. 5A, B): less evident
- early deaths of treated mice (Panc02 cells [2]; FIG. 5C): No early deaths
- survival of treated mice (Panc02 cells [3]; DON 400 μg i.p., FIG. 6C): significantly prolonged
- efficacy of the therapy (Panc02 cells [3]; DON 400 μg i.t. in left tumor, FIG. 6): did not improve the efficacy
- water and food consumption (Panc02 cells [4]; FIG. 7D, E): without any influence
- weight of treated mice (Panc02 cells [4]; FIG. 7F): without any influence
